Data: PubChem BioAssay AID328 (DTP/NCI, 2004)
Inconclusive results and toxic doses are left out.

System: BDF1 mice, P388 leukemia ip, median survival T/C
Test: NCI In Vivo Anticancer Drug Screen. Data for tumor model P388 Leukemia (intraperitoneal) in B6D2F1 (BDF1) mice
Conditions: endpoint: median survival time, higher = longer survival
Procedure, shortened: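 Antitumour effect was judged in vivo: survival in drug-treated mice, normalised to that of vehicle-dosed controls, gives the reported T/C.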

[1] = dose: 100.0 mg/kg/injection, schedule: Q04DX003 (ip), vehicle: Klucel (hydroxypropylcellulose) (HPC)
[2] = dose: 200.0 mg/kg/injection, schedule: Q04DX003 (ip), vehicle: Klucel (hydroxypropylcellulose) (HPC)
[3] = dose: 400.0 mg/kg/injection, schedule: Q04DX003 (ip), vehicle: Klucel (hydroxypropylcellulose) (HPC)
[4] = dose: 50.0 mg/kg/injection, schedule: Q01DX009 (ip), vehicle: saline with Tween-80
[5] = dose: 12.5 mg/kg/injection, schedule: Q01DX009 (ip), vehicle: saline with Tween-80
[6] = dose: 25.0 mg/kg/injection, schedule: Q01DX009 (ip), vehicle: saline with Tween-80
[7] = dose: 100.0 mg/kg/injection, schedule: Q01DX009 (ip), vehicle: saline with Tween-80
[8] = dose: 200.0 mg/kg/injection, schedule: Q01DX009 (ip), vehicle: saline with Tween-80

O=[N+]([O-])c1ccccc1NC1c2ccccc2Oc2ccccc21
T/C [1]: 116 % of control
T/C [2]: 122 % of control
T/C [3]: 122 % of control

O=C1c2cc3c(cc2CCC1c1ccc2c(c1)OCO2)OCO3 (stereo not given)
T/C (dose: 20.0 mg/kg/injection, schedule: Q01DX009 (ip), vehicle: saline with Tween-80): 91 % of control
T/C (dose: 40.0 mg/kg/injection, schedule: Q01DX009 (ip), vehicle: saline with Tween-80): 91 % of control
T/C (dose: 120.0 mg/kg/injection, schedule: Q01DX009 (ip), vehicle: saline with Tween-80): 95 % of control
T/C (dose: 240.0 mg/kg/injection, schedule: Q01DX009 (ip), vehicle: saline with Tween-80): 91 % of control

N#Cc1c(SCc2ccc(Cl)cc2)nsc1Nc1ccc(Cl)cc1
T/C [4]: 108 % of control

O=[N+]([O-])c1ccc(N=NNc2ccc(N=Nc3ccccc3)cc2)cc1
T/C (dose: 12.5 mg/kg/injection, schedule: Q01DX009 (ip), vehicle: Klucel (hydroxypropylcellulose) (HPC)): 109 % of control
T/C (dose: 25.0 mg/kg/injection, schedule: Q01DX009 (ip), vehicle: Klucel (hydroxypropylcellulose) (HPC)): 118 % of control
T/C (dose: 50.0 mg/kg/injection, schedule: Q01DX009 (ip), vehicle: Klucel (hydroxypropylcellulose) (HPC)): 95 % of control
T/C (dose: 75.0 mg/kg/injection, schedule: Q01DX009 (ip), vehicle: Klucel (hydroxypropylcellulose) (HPC)): 100 % of control
T/C (dose: 115.0 mg/kg/injection, schedule: Q01DX009 (ip), vehicle: Klucel (hydroxypropylcellulose) (HPC)): 95 % of control
T/C (dose: 170.0 mg/kg/injection, schedule: Q01DX009 (ip), vehicle: Klucel (hydroxypropylcellulose) (HPC)): 90 % of control

O=C(CCCCl)CC(O)(C(F)(F)F)C(F)(F)F
T/C [5]: 95 % of control
T/C [6]: 100 % of control
T/C [4]: 115 % of control
T/C [7]: 104 % of control

Cc1cc(C)cc(CCc2cc(C)cc(C)c2)c1
T/C [1]: 100 % of control
T/C (dose: 200.0 mg/kg/injection, schedule: Q01DX009 (ip), vehicle: Klucel (hydroxypropylcellulose) (HPC)): 109 % of control
T/C [2]: 90 % of control
T/C (dose: 400.0 mg/kg/injection, schedule: Q01DX009 (ip), vehicle: Klucel (hydroxypropylcellulose) (HPC)): 100 % of control
T/C [3]: 95 % of control

O=C(Nc1ccc(-c2cn3ccccc3n2)cc1)c1cc(Br)ccc1O
T/C [5]: 100 % of control
T/C [6]: 91 % of control
T/C [4]: 107 % of control

COC1NC(=O)NC(=O)C1=[N+]=[N-] (stereo not given)
T/C (dose: 3.3 mg/kg/injection, schedule: Q01DX009 (ip), vehicle: saline with Tween-80): 170 % of control
T/C (dose: 5.0 mg/kg/injection, schedule: Q01DX009 (ip), vehicle: saline with Tween-80): 175 % of control

COc1cccc(/C(C)=N\Nc2ccc([N+](=O)[O-])cc2[N+](=O)[O-])c1OC
T/C [4]: 94 % of control
T/C (dose: 50.0 mg/kg/injection, schedule: Q04DX003 (ip), vehicle: saline with Tween-80): 100 % of control
T/C [7]: 100 % of control
T/C (dose: 100.0 mg/kg/injection, schedule: Q04DX003 (ip), vehicle: saline with Tween-80): 102 % of control
T/C [8]: 91 % of control
T/C (dose: 200.0 mg/kg/injection, schedule: Q04DX003 (ip), vehicle: saline with Tween-80): 102 % of control
T/C (dose: 400.0 mg/kg/injection, schedule: Q01DX009 (ip), vehicle: saline with Tween-80): 94 % of control
T/C (dose: 400.0 mg/kg/injection, schedule: Q04DX003 (ip), vehicle: saline with Tween-80): 97 % of control

CN1c2ccccc2C(=O)NC1c1ccc([N+](=O)[O-])s1 (stereo not given)
T/C [4]: 95 % of control
T/C [7]: 100 % of control
T/C [8]: 91 % of control

COc1cc(O)c(C(=O)c2ccccc2)cc1S(=O)(=O)O
T/C (dose: 100.0 mg/kg/injection, schedule: Q01DX009 (ip), vehicle: saline): 110 % of control
T/C (dose: 100.0 mg/kg/injection, schedule: Q04DX003 (ip), vehicle: saline): 109 % of control
T/C (dose: 200.0 mg/kg/injection, schedule: Q01DX009 (ip), vehicle: saline): 110 % of control
T/C (dose: 200.0 mg/kg/injection, schedule: Q04DX003 (ip), vehicle: saline): 100 % of control
T/C (dose: 400.0 mg/kg/injection, schedule: Q01DX009 (ip), vehicle: saline): 110 % of control
T/C (dose: 400.0 mg/kg/injection, schedule: Q04DX003 (ip), vehicle: saline): 100 % of control
